Type in all cases: cell-based
Data set [1] deals with MDA−MB−231 cells. As to the kind of experiment: Cellular uptake of Pt by ICP-MS. As to conditions: MDA−MB−231, 3 µM. In short, it runs like this: (§1)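 HT29 and MDA-MB-231 cells (10^6/well) exposed to 3 µM Pt(II) or Pt(IV) complex for 0–30 h, washed with cold PBS, digested in 69% HNO3. Pt measured by ICP-MS with ^193Ir internal standard against external standards; given as nmol/10^6 cells or µM/cell, mean ±SEM of three experiments in triplicate.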

In data set [2] the test system is HT29 cells. As to the kind of experiment: Cellular uptake of Pt by ICP-MS. As to conditions: HT29, 3 µM. A digest of the protocol: as §1
The subject of data set [3] is MDA−MB−231 3D networks. As to the kind of experiment: 3D bioprinted culture cytotoxicity (WST-1). As to conditions: 72 h, mean ± SEM. (In general: Tetrazolium dyes change colour on reduction, which living cells bring about.)
The test system of data set [4] is HT29 spheroids. As to the kind of experiment: 3D bioprinted spheroid cytotoxicity (WST-1). The following applies: 72 h, mean ± SEM.
Data set [5] concerns MDA−MB−231 spheroids. As to the kind of experiment: 3D bioprinted spheroid cytotoxicity (WST-1). The following applies: 72 h, mean ± SEM.

By IC50 is commonly meant the concentration that inhibits the measured activity by half.

With `N.N.[Cl][Pt][Cl]` [Cisplatin, cisplatin], the “Intracellular Concentration” value in data set [1] (0 h) is 0.56 nmol/10^6 cells; in data set [1] (0.5 h) it was 0.15 nmol/10^6 cells; in data set [1] (1 h), 0.14 nmol/10^6 cells; in data set [1] (3 h), 0.12 nmol/10^6 cells; in data set [1] (6 h) it was 0.18 nmol/10^6 cells; in data set [1] (12 h), 0.19 nmol/10^6 cells. Besides, the “Intracellular Concentration” value in data set [1] (24 h) is on record as 0.24 nmol/10^6 cells; in data set [1] (30 h) it was 1.29 nmol/10^6 cells; in data set [2] (0 h), 0.36 nmol/10^6 cells; in data set [2] (0.5 h), 0.94 nmol/10^6 cells; in data set [2] (1 h) it was 0.14 nmol/10^6 cells; in data set [2] (3 h), 0.28 nmol/10^6 cells. Also, the “Intracellular Concentration” value in data set [2] (6 h) was 0.10 nmol/10^6 cells; in data set [2] (12 h) it was 0.57 nmol/10^6 cells; in data set [2] (24 h), 1.02 nmol/10^6 cells; in data set [2] (30 h) it was 0.71 nmol/10^6 cells. Besides, the concentration for half-maximal inhibition (IC50) in data set [3] worked out at 16 ± 1.49 µM; in data set [4], 445 ± 5.09 µM; in data set [5], 48.5 ± 1.62 µM.

The values are drawn from publication PMC11274883, “Anticancer Effect of Pt^[sequence], Pt^II5MESS, Pt^II56MESS and Their Platinum(IV)-Dihydroxy Derivatives against Triple-Negative Breast Cancer and Cisplatin-Resistant Colorectal Cancer” (Cancers, 2024).
